Laboratory results reported in patent US7868204B2, “Inhibitors of histone deacetylase” (MethylGene Inc., priority 2001, dated 2011).
Like-named read-outs stand apart in the source and are kept apart here.

Key:
[1] = molecular target: T1, cloned recombinant human HDAC-1 (Homo sapiens, UniProt Q13547); experiment: Human HDAC-1 enzyme inhibition, Assay 1 ([3H]-acetylated histone substrate, scintillation counting); format: biochemical
T1 construct: made in house; host or cells: Baculovirus insect cell expression system
T1 sequence (Q13547 whole entry): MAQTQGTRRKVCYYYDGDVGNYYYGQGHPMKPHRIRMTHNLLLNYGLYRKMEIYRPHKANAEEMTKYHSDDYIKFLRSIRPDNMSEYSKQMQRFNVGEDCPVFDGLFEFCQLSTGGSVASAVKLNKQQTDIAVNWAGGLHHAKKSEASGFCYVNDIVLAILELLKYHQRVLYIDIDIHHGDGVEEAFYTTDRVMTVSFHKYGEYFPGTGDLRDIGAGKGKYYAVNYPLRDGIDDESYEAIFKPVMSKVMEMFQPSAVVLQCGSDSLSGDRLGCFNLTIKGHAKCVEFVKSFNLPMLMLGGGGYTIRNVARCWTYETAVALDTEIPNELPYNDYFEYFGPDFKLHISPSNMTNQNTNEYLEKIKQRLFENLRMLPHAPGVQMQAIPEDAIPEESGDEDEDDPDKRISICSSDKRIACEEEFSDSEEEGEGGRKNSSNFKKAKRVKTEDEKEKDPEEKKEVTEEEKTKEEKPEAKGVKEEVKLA
In short: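 Activity read as [3H]-acetic acid liberated from labeled substrate, ethyl acetate-extracted and scintillation-counted. Compounds preincubated 30 min at 4° C. with baculovirus-expressed, purified human HDAC-1. Dose-response curves give IC50 as concentration producing fifty percent of maximal inhibition.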

HCT116 cells = experiment: MTT assay; format: cell-based; settings: Homo sapiens, HCT116 cells, 72 hours
In short: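 Read-out: MTT (0.5 mg/ml final, 4 h) after solubilization in 50% DMF/20% SDS, pH 4.7, with OD translated into cell number via the line's growth curve. Compound treatment lasted 72 h at 37 °C in 5% CO2, starting a day after plating.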

[2] = tested on: acetylated histone H-4 in T24 human bladder cancer cells; experiment: Histone H4 acetylation in whole cells by immunoblots; format: cell-based; settings: 16 h
In short: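 Acetylated histone H4 was quantified by densitometry of ECL-developed immunoblots, probed with a polyclonal antibody, of […] total histone from T24 cultures exposed 16 h to HDAC inhibitors.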

[3] = Table 5F, read-out: Human HDAC-1 IC50
[4] = T-24, Table 5F, read-out: H4 Ac (T24) EC50
[5] = Table 5b, read-out: Human HDAC-1 IC50
[6] = T-24, Table 5b, read-out: H4Ac (T24) EC50

Row | SMILES | IC50 [1, 3] | IC50 (HCT116 cells; HCT-116, 72 h, Table 5F) | EC50 [2, 4] | further results
1 | COc1ccc2nc(NCc3ccc(C(=O)Nc4ccccc4N)cc3)sc2c1 [Cpd 233] | 900 nM | 300 nM | 1000 nM | –
2 | Nc1ccccc1NC(=O)c1ccc(CNc2ncc(Br)s2)cc1 [Cpd 467, N-(2-Amino-phenyl)-4-[(5-bromo-thiazol-2-ylamino)-methyl]-benzamide] | 4000 nM | 400 nM | 2000 nM | –
3 | Nc1ccccc1NC(=O)c1ccc(CSc2nccc(C(F)(F)F)n2)cc1 [Cpd 379, N-(2-Amino-phenyl)-4-(4-trifluoromethyl-pyrimidin-2-ylsulfanylmethyl)-benzamide] | 2000 nM | 600 nM | 15000 nM | –
4 | COc1ccc(NCc2ccc(C(=O)Nc3ccccc3N)cc2)c(C)c1 [Cpd 403, N-(2-Amino-phenyl)-4-[(4-methoxy-2-methyl-phenylamino)-methyl]-benzamide] | 1000 nM | 200 nM | 1000 nM | –
5 | Nc1ccccc1NC(=O)c1ccc(CNc2nc(NCC3CC3)nc(NC3Cc4ccccc4C3)n2)cc1 [Cpd 472] | – | – | – | IC50 [1, 5]: 3000 nM; IC50 (HCT116 cells; HCT-116, 72 h, Table 5b): 1000 nM; EC50 [2, 6]: 1000 nM
6 | Cn1c(=O)c2cc(NCc3ccc(C(=O)Nc4ccccc4N)cc3)ccc2n(C)c1=O [Cpd 461, N-(2-Amino-phenyl)-4-[(1,3-dimethyl-2,4-dioxo-1,2,3,4-tetrahydro-quinazolin-6-ylamino)-methyl]-benzamide] | 1400 nM | 300 nM | 1000 nM | –
7 | Nc1ccccc1NC(=O)c1ccc(CNc2nc(-c3ccc(Cl)cc3)cs2)cc1 [Cpd 321, N-(2-Amino-phenyl)-4-{[4-(4-chloro-phenyl)-thiazol-2-ylamino]-methyl}-benzamide] | 500 nM | 300 nM | 5000 nM | –
8 | COc1cc(OC)cc(OCc2ccc(C(=O)Nc3ccccc3N)cc2)c1 [Cpd 395, N-(2-Amino-phenyl)-4-(3,5-dimethoxy-phenoxymethyl)-benzamide] | 2000 nM | 1000 nM | 5000 nM | –
9 | Nc1ccccc1NC(=O)/C=C/c1ccc(NCc2cccnc2)nc1 [Cpd 90, N-(2-aminophenyl)-3-{6-[(pyridin-3-ylmethyl)-amino]-pyridin-3-yl}-acrylamide] | – | – | – | IC50 ([1]; Table 5c, read-out: Human HDAC-1 IC50): 10000 nM; IC50 (HCT116 cells; HCT-116, 72 h, Table 5c): 5000 nM; EC50 ([2]; T-24, Table 5c, read-out: H4Ac (T24) EC50): 5000 nM
10 | Cc1cc(C)c(NCc2ccc(C(=O)Nc3ccccc3N)cc2)c(C)c1 [Cpd 410, N-(2-Amino-phenyl)-4-[(2,4,6-trimethyl-phenylamino)-methyl]-benzamide] | 900 nM | 100 nM | > 5000 nM | –
11 | COc1nc(NCc2ccc(C(=O)Nc3ccccc3N)cc2)nc(OC)n1 [Cpd 212] | – | – | – | IC50 [1, 5]: 3000 nM; IC50 (HCT116 cells; HCT-116, 72 h, Table 5b): 1000 nM; EC50 [2, 6]: 1000 nM
12 | Nc1ccccc1NC(=O)c1ccc(CSc2ccc3ccccc3n2)cc1 [Cpd 131, N-(2-Amino-phenyl)-4-(quinolin-2-ylsulfanylmethyl)-benzamide] | – | – | – | IC50 ([1]; Table 5E, read-out: Human HDAC-1 IC50): 300 nM; IC50 (HCT116 cells; HCT-116, 72 h, Table 5E): 900 nM; EC50 ([2]; T-24, Table 5E, read-out: H4 Ac (T24) EC50): 2000 nM
13 | Nc1ccccc1NC(=O)/C=C/c1ccc(CNc2ccc(Cc3ccncc3)cc2)cc1 [Cpd 531, N-(2-Amino-phenyl)-3-{4-[(4-pyridin-4-ylmethyl-phenylamino)-methyl]-phenyl}-acrylamide] | – | – | – | IC50 ([1]; HDAC-1 IC50, Table 5d): 3000 nM; IC50 (HCT116 cells; HCT-116, Table 5d): 2000 nM; EC50 ([2]; T-24, Table 5d, read-out: H4Ac(T24) EC50): 20000 nM
14 | Nc1ccccc1NC(=O)c1ccc(CC2COc3ccccc3C2)cc1 (stereo not drawn) [compound 265, N-(2-Amino-phenyl)-4-chroman-3-ylmethyl-benzamide] | 2000 nM | 2000 nM | 3000 nM | –
15 | Nc1ccccc1NC(=O)c1ccc(Cn2c(=O)oc3ccccc3c2=O)cc1 [Cpd 179] | 1000 nM | 300 nM | 1000 nM | –
16 | COc1cc(N2CC(c3ccc(C(=O)Nc4ccccc4N)cc3)OC2=O)cc(OC)c1OC (stereo not drawn) [compound 297, N-(2-Amino-phenyl)-4-[2-oxo-3-(3,4,5-trimethoxy-phenyl)-oxazolidin-5-yl]-benzamide] | 7000 nM | 400 nM | 1000 nM | –
